A short description of data set [1]: Tissue distribution and pharmacokinetics of PTX after PTX-DLPC aerosol generated with normal or 5% CO2-enriched air. The format is in vivo, mice. The settings on record: for Cmax: lung, inhaled, 10 mg of PTX/ml suspension (nebulized, 30 min aerosol exposure), 30 min, read-out: Pulmonary paclitaxel Cmax.
Another data set has as its system B16-F10 lung metastasis. The experiment in a line: Inhibition of B16-F10 lung metastasis by aerosol delivery. Format: in vivo, C57BL/6 mice. The settings on record: 5% CO2 alone, data not shown. The procedure:
B16-F10 melanoma cell line was obtained from Division of Cancer treatment and Diagnosis Center (DCTDC, NCE, Frederick, Md.) and cultivated in DMEM supplemented with 10% fetal calf serum. […] Twenty-five thousand B16-F10 cells in 200 μl of media are injected per mice via the tail vein of C57BL/6 mice. Lung metastases are visually detected within 2 weeks after inoculation of cells. The cells were used at passages 3-12.
C57BL/6 mice were injected intravenously with 25,000 B16-F10 cells on day 0. The mice were treated with polyethylenimine-p53 aerosol complexes generated using 5% CO2 twice a week starting the day after inoculation of the cancer cells into the mice (on days 1, 4, 8, 11, 15, 18, and 22) with the last treatment on day 22 postinjection (a total of seven aerosol exposures). Control groups included untreated mice, mice treated with polyethyleneimine or with polyethylenimine-Luc aerosol complexes. The control animals start dying around day 24 post tumor cell inoculation, which is when the therapy was stopped and the experiment terminated. The dosage of treatment was 2 mg plasmid/10 ml of aerosolized solution at a polyethyleneimine:DNA (N:P) ratio of 10:1. This is the total amount of DNA aerosolized to the mice. […]

The conditions of data set [2]: cited from earlier work.
For data set [3] the following is noted: cited from earlier work; for increase in frequency of breathing / increase in minute volumes / increase in tidal volumes: normal humans.
The nature of data set [4]: Tissue distribution and pharmacokinetics of CPT after CPT-DLPC aerosol generated with normal or 5% CO2-enriched air. The settings on record: 5% CO2-in-air versus normal air.
Description: Briefly, an AERO-MIST jet nebulizer (CIS-USA, Bedford, Mass.) is used to generate aerosol particles at the air flow rate of 10 L/min. Mice are placed in sealed plastic cage (23×18×13 cm) and exposed to aerosol for 30 min. The aerosol is generated with normal or 5% CO2-enriched air obtained by mixing normal air and CO2 with a blender (Bird 3m, Palm Springs, Calif.) and the CO2 concentrations are calibrated with a Fluid Fyrite (Bacharach Inc., Pittsburgh, Pa.). At each time point 3 mice are removed from the cage and sacrificed by exposure to Isoflurane, USP (Abbott Laboratories, Chicago, Ill.) and exsanguination. Organs are resected, weighed and kept frozen at −70° C. until extraction.
Briefly, after thawing tissue, 20 μg of 9NC in 20 μl is added in organs as an internal standard to determine the extraction efficiency. The samples are cut in small pieces and 1 ml of 0.1% aqueous acetic acid solution, pH 3.2 is added to each sample. After the homogenization in a mini-beadbeater, the homogenates are centrifuged at 1,000×g for 5 min. The supernatant fractions are re-extracted with 8 ml of methylene chloride. The organic fraction is separated and dried under air at room temperature. […]
Chromatograms for camptothecin are monitored on Waters 470 scanning fluorescent detector (λex=360 nm, λem=455 nm) while 9NC is detected using Waters 440 UV absorbance detector monitoring at 254 nm. […]
Setting [5] is: inhalation of 5% carbon dioxide.
The mark [6] stands for this setting: 5% carbon dioxide for two minutes.
Setting [7] is: 7.5% carbon dioxide for two minutes.

Read-outs that look alike come from different tables or passages of the source.

For `CC(=O)O[C@H]1C(=O)[C@@]2(C)[C@H]([C@H](OC(=O)c3ccccc3)[C@]3(O)C[C@H](OC(=O)[C@H](O)[C@@H](NC(=O)c4ccccc4)c4ccccc4)C(C)=C1C3(C)C)[C@]1(OC(C)=O)CO[C@@H]1C[C@@H]2O` [paclitaxel], the “area under the lung-concentration-time curve” value in data set [1] (5% CO2) came to 33.7 µg·h/g. In data set [1] (5% CO2-air), the “T1/2α in the lungs” value worked out at 0.7 h and the “T1/2β in the lungs” value was 5.1 h. Besides, in data set [1] (5% CO2-air, trapezoidal rule), the “AUC over a 3 hr period, fifth value of list (blood)” value was 0.13±0.10 μg PTS-hr/g of tissue; the “AUC over a 3 hr period, fourth value of list (kidney)” value was 2.8±1.5 μg PTS-hr/g of tissue; the “AUC over a 3 hr period, liver” value is given as 9.8±1.9 μg PTS-hr/g of tissue; the “AUC over a 3 hr period, lungs” value is reported as 34±2 μg PTS-hr/g of tissue. For the same compound, the “AUC over a 3 hr period, sixth value of list (brain)” value in data set [1] (5% CO2-air, trapezoidal rule) is reported as 0.23±0.2 μg PTS-hr/g of tissue. For the same compound, the “average pulmonary deposition increase” value in data set [1] (5% CO2-in-air versus normal air) is on record as 2-4 fold. For the same compound, in data set [1] (lungs), the “Cmax ratio 5% CO2-enriched air versus ambient air” value is reported as 4.2 fold. The “lung AUC ratio 5% CO2 versus normal air” value in data set [1] (mouse, in vivo) stood at 5.7 fold. Besides, in data set [1] (mouse, 5% CO2-enriched air), the Cmax stood at 23100 ± 4300 ng/g. In data set [1] (mouse, ambient air), the Cmax turned out to be 5500 ± 200 ng/g. Further, in data set [1] (normal air), the “T1/2α in the lungs” value came to 0.3 h, the “T1/2β in the lungs” value stood at 1.6 h and the “area under the lung-concentration-time curve” value stood at 5.9 µg·h/g. In addition, the “levels of paclitaxel in liver, spleen, kidney and blood” value in data set [1] (normal air for aerosolization) is recorded as “below detectable levels”.
Consider `O=C=O` [carbon dioxide], for which the “effect on the growth of tumors compared to untreated mice” value with B16-F10 lung metastasis is recorded as “no effect”. Further, in data set [2] (5% CO2-enriched air, mammalians, plethysmograph studies), the “increase in tidal volume” value is given as 170-180%. Besides, the “increase in tidal volume” value in data set [2] (setting [5]) was at most 192%. Besides, in data set [3] (setting [6]), the “increase in frequency of breathing” value is 6.7%, the “increase in minute volumes” value is given as 34% and the “increase in tidal volumes” value is 31%. Moreover, in data set [3] (setting [7]), the “increase in frequency of breathing” value is given as 19%, the “increase in minute volumes” value is 75% and the “increase in tidal volumes” value is 52%. For the same compound, in data set [3] (setting [5]), the “increase in the minute volume” value is recorded as 3 fold.
For `CC[C@@]1(O)C(=O)OCc2c1cc1n(c2=O)Cc2cc3ccccc3nc2-1` [camptothecin], the “average pulmonary deposition increase” value in data set [4] was 2-4 fold.

In general, Cmax refers to the maximum level reached in the sampled fluid or tissue.
